Assay results as given in patent publication US20090137396A1, “Piperazine Compounds with a Herbicidal Action” (BASF SE, priority 2006, published 2009).

Test system: not given
Assay: not given
Settings: not given

melting point [°C] | Structure (SMILES)
159 | CN1C(=O)C(Cc2ccccc2)N(C)C(=O)C1=Cc1c[nH]c2cccc([N+](=O)[O-])c12 (stereo not shown) [184]
238 | CN1C(=O)C(Cc2ccccc2)N(C)C(=O)C1=Cc1c[nH]c2cccc([N+](=O)[O-])c12 (stereo not shown) [185]
175 | CN1C(=O)C(Cc2ccccc2)N(C)C(=O)C1=Cc1c(C#N)ccc(F)c1F (stereo not shown) [Example 115, 3-Benzyl-1,4-dimethyl-6-(2-cyano-5,6-difluorobenzylidene)piperazine-2,5-dione]
180 | CN1C(=O)C(Cc2ccccc2)N(C)C(=O)C1=Cc1ccncc1[N+](=O)[O-] (stereo not shown) [Example 196]
175 | CN1C(=O)C(Cc2ccccc2)N(C)C(=O)C1=Cc1ccncc1[N+](=O)[O-] (stereo not shown) [Example 197]
165 | CN1C(=O)C(Cc2ccccc2)N(C)C(=O)C1=Cc1ncccc1[N+](=O)[O-] (stereo not shown) [Example 198]
236 | CN1C(=O)C(Cc2ccccc2)N(C)C(=O)C1=Cc1c[nH]c2cccc(Br)c12 (stereo not shown) [Example 199]
218 | CN1C(=O)C(Cc2ccccc2)N(C)C(=O)C1=Cc1cccnc1C#N (stereo not shown) [Example 205]

Test system: Lulium perenne (LOLMU)
Assay: greenhouse experiment, post-emergence treatment, LOLMU
Format: in vivo
Settings: post-emergence method, application rate 1 kg/ha; scale from 0 to 100
Excerpt: (§1) The seeds of the test plants were sown separately for each species. For the post-emergence treatment, the test plants were first grown to a height of 3 to 15 cm, depending on the plant habit, and only then treated with the active ingredients which had been suspended or emulsified in water. For this purpose, the test plants were either sown directly and grown in the same containers, or they were first grown separately as seedlings and transplanted into the test containers a few days prior to treatment. Depending on the species, the plants were kept at 10-25° C. or 20-35° C. The test period extended over 2 to 4 weeks. During this time, the plants were tended, and their response to the individual treatments was evaluated. Evaluation was carried out using a scale from 0 to 100. 100 means no emergence of the plants, or complete destruction of at least the aerial moieties, and 0 means no damage, or normal course of growth. Good herbicidal activity is given for values of at least 70 and very good herbicidal activity is given for values of at least 85. The plants used in the greenhouse experiments belonged to the following species: [table]

Structure (SMILES) | herbicidal activity against LOLMU
CN1C(=O)[C@H](Cc2ccccc2)N(C)C(=O)C1=Cc1ccccc1[N+](=O)[O-] (stereo in doubt) [Example 1, 3-Benzyl-1,4-dimethyl-6-(2-nitrobenzylidene)piperazine-2,5-dione] | very good (very good herbicidal activity is given for values of at least 85)

Test system: Avena fatua (AVEFA)
Assay: greenhouse experiment, pre-emergence treatment, AVEFA
Format: in vivo
Settings: pre-emergence method, application rate 1 kg/ha; scale from 0 to 100
Excerpt: (§2) The seeds of the test plants were sown separately for each species. For the pre-emergence treatment, the active ingredients, which had been suspended or emulsified in water, were applied directly after sowing by means of finely distributing nozzles. The containers were irrigated gently to promote germination and growth and subsequently covered with transparent plastic hoods until the plants had rooted. This cover causes uniform germination of the test plants, unless this has been impaired by the active ingredients. Depending on the species, the plants were kept at 10-25° C. or 20-35° C. The test period extended over 2 to 4 weeks. During this time, the plants were tended, and their response to the individual treatments was evaluated. Evaluation was carried out using a scale from 0 to 100. 100 means no emergence of the plants, or complete destruction of at least the aerial moieties, and 0 means no damage, or normal course of growth. Good herbicidal activity is given for values of at least 70 and very good herbicidal activity is given for values of at least 85. The plants used in the greenhouse experiments belonged to the following species: [table]

Structure (SMILES) | herbicidal activity against AVEFA
CN1C(=O)C(Cc2ccccc2)N(C)C(=O)C1=Cc1cnccc1I (stereo not shown) [Example 206] | good (Good herbicidal activity is given for values of at least 70)

Test system: test plants
Assay: greenhouse experiment, pre-emergence treatment, species not stated
Format: in vivo
Settings: pre-emergence method; scale from 0 to 100
Excerpt: as §2

Structure (SMILES) | herbicidal activity
CN1C(=O)C(Cc2ccccc2)N(C)C(=O)C1=Cc1ccccc1-c1ncco1 (single isomer, unassigned) [Example 45] | good to very good
CN1C(=O)C(Cc2ccccc2)N(C)C(=O)C1=Cc1ccccc1-c1ncccn1 (single isomer, unassigned) [Example 100] | good to very good
CN1C(=O)C(Cc2ccccc2)N(C)C(=O)C1=Cc1ccccc1-c1ncccn1 (single isomer, unassigned) [Example 101] | good to very good
CN1C(=O)C(Cc2ccccc2)N(C)C(=O)C1=Cc1ccccc1-c1cnccn1 (single isomer, unassigned) [Example 109] | good to very good
CN1C(=O)C(Cc2ccccc2)N(C)C(=O)C1=Cc1ccccc1-c1cnccn1 (single isomer, unassigned) [Example 110] | good to very good
Cc1cc(-c2ccccc2C=C2C(=O)N(C)C(Cc3ccccc3)C(=O)N2C)on1 (single isomer, unassigned) [Example 147] | good to very good
Cc1cc(-c2ccccc2C=C2C(=O)N(C)C(Cc3ccccc3)C(=O)N2C)on1 (single isomer, unassigned) [Example 148] | good to very good
CN1C(=O)C(Cc2ccccc2)N(C)C(=O)C1=Cc1c(F)cccc1I (stereo not shown) [Example 38] | good to very good
CN1C(=O)C(Cc2ccccc2)N(C)C(=O)C1=Cc1c(Cl)cccc1I (stereo not shown) [Example 40] | good to very good
CN1C(=O)C(Cc2ccccc2)N(C)C(=O)C1=Cc1ccccc1C(F)(F)F (stereo not shown) [Example 54] | good to very good
CN1C(=O)C(Cc2ccccc2)N(C)C(=O)C1=Cc1cc(F)ccc1Br (stereo not shown) [Example 62] | good to very good
COC(=O)c1ccccc1C=C1C(=O)N(C)C(Cc2ccccc2)C(=O)N1C (stereo not shown) [Example 73] | good to very good
CN1C(=O)C(Cc2ccccc2)N(C)C(=O)C1=Cc1c(Br)ccc(F)c1F (stereo not shown) [Example 119, 3-benzyl-1,4-dimethyl-6-(2-bromo-5,6-difluorobenzylidene)piperazine-2,5-dione] | good to very good
CN1C(=O)C(Cc2ccccc2)N(C)C(=O)C1=Cc1ccccc1-c1cncnc1 (stereo not shown) [Example 124] | good to very good
CN1C(=O)C(Cc2ccccc2)N(C(=O)c2ccccc2)C(=O)C1=Cc1ccccc1C#N (stereo not shown) [Example 137] | good to very good
CC(=O)N1C(=O)C(=Cc2ccccc2C#N)N(C)C(=O)C1Cc1ccccc1 (stereo not shown) [Example 140] | good to very good
CN1C(=O)C(Cc2ccccc2)N(C)C(=O)C1=Cc1ccsc1[N+](=O)[O-] (stereo not shown) [Example 191] | good to very good
CN1C(=O)C(Cc2ccccc2)N(C)C(=O)C1=Cc1ncccc1[N+](=O)[O-] (stereo not shown) [Example 198] | good to very good
CN1C(=O)C(Cc2ccccc2)N(C)C(=O)C1=Cc1cccnc1Br (stereo not shown) [Example 204] | good to very good
CN1C(=O)C(Cc2ccccc2)N(C)C(=O)C1=Cc1cnccc1I (stereo not shown) [Example 206] | good to very good
CN1C(=O)C(Cc2cccs2)N(C)C(=O)C1=Cc1ccccc1I (stereo not shown) [Example 214] | good to very good

Test system: Abutilon theophrasti (ABUTH)
Assay: greenhouse experiment, pre-emergence treatment, ABUTH
Format: in vivo
Settings: pre-emergence method, application rate 3 kg/ha; scale from 0 to 100
Excerpt: as §2

Structure (SMILES) | herbicidal activity against ABUTH
COC(=O)c1ccccc1C=C1C(=O)N(C)C(Cc2ccccc2)C(=O)N1C (stereo not shown) [Example 73] | good (Good herbicidal activity is given for values of at least 70)

Test system: SETIT
Assay: greenhouse experiment, pre-emergence treatment, SETIT
Format: in vivo
Settings: pre-emergence method, application rate 3 kg/ha; scale from 0 to 100
Excerpt: as §2

Structure (SMILES) | herbicidal activity against SETIT
CN1C(=O)C(Cc2cccs2)N(C)C(=O)C1=Cc1ccccc1I (stereo not shown) [Example 214] | good (Good herbicidal activity is given for values of at least 70)

Test system: test plants
Assay: greenhouse experiment, post-emergence treatment, species not stated
Format: in vivo
Settings: post-emergence method; scale from 0 to 100
Excerpt: as §1

Structure (SMILES) | herbicidal activity
Cc1cccc([N+](=O)[O-])c1C=C1C(=O)N(C)C(Cc2ccccc2)C(=O)N1C (single isomer, unassigned) [Example 13] | good to very good
CN1C(=O)C(Cc2ccccc2)N(C)C(=O)C1=Cc1cc2c(cc1[N+](=O)[O-])OCO2 (single isomer, unassigned) [Example 16] | good to very good
CN1C(=O)C(Cc2ccccc2)N(C)C(=O)C1=Cc1ccccc1-c1nccs1 (single isomer, unassigned) [Example 44] | good to very good
CN1C(=O)C(Cc2ccccc2)N(C)C(=O)C1=Cc1ccccc1-c1ccco1 (single isomer, unassigned) [Example 47] | good to very good
CN1C(=O)C(Cc2ccccc2)N(C)C(=O)C1=Cc1ccccc1-c1ccco1 (single isomer, unassigned) [Example 48] | good to very good
Cc1coc(-c2ccccc2C=C2C(=O)N(C)C(Cc3ccccc3)C(=O)N2C)n1 (single isomer, unassigned) [Example 52] | good to very good
C=Cc1ccccc1C=C1C(=O)N(C)C(Cc2ccccc2)C(=O)N1C (single isomer, unassigned) [Example 129] | good to very good
CN1C(=O)[C@H](Cc2ccccc2)N(C)C(=O)C1=Cc1ccccc1[N+](=O)[O-] (stereo in doubt) [Example 1, 3-Benzyl-1,4-dimethyl-6-(2-nitrobenzylidene)piperazine-2,5-dione] | good to very good
CN1C(=O)C(Cc2ccccc2)N(C)C(=O)C1=Cc1ccccc1-c1cccs1 (stereo not shown) [Example 49] | good to very good
CN1C(=O)C(Cc2ccccc2)N(C)C(=O)C1=Cc1ccccc1-c1cccnc1 (stereo not shown) [Example 51] | good to very good
CN1C(=O)C(Cc2ccccc2)N(C)C(=O)C1=C(Br)c1ccccc1C#N (stereo not shown) [Example 160] | good to very good
CCN1C(=O)C(Cc2ccccc2)N(CC)C(=O)C1=Cc1ccccc1Br (stereo not shown) [Example 170] | good to very good

Test system: Amaranthus retroflexus (AMARE)
Assay: greenhouse experiment, pre-emergence treatment, AMARE
Format: in vivo
Settings: pre-emergence method, application rate 1 kg/ha; scale from 0 to 100
Excerpt: as §2

Structure (SMILES) | herbicidal activity against AMARE
CN1C(=O)C(Cc2ccccc2)N(C(=O)c2ccccc2)C(=O)C1=Cc1ccccc1C#N (stereo not shown) [Example 137] | good (Good herbicidal activity is given for values of at least 70)
